Common to all, as to experiment: Cell viability (MTS) assay, cell killing
What all share (assay type): cell-based, human

One experiment has as its system A431 cells. As to the method:
(§1) After treatment the cells were incubated for 72 hr at 37° C. before the cell viability was determined by a MTS-assay, performed according to the manufacturer's instruction (CellTiter 96® AQueous One Solution Cell Proliferation Assay, Promega). Briefly, the MTS solution was diluted 20× in DMEM without phenol red (PAN-Biotech GmbH) supplemented with 10% FBS. The cells were washed once with 200 μL/PBS well, after which 100 μL diluted MTS solution was added/well. The plate was incubated for approximately 20-30 minutes at 37° C. Subsequently, the OD at 492 nm was measured on a Thermo Scientific Multiskan FC plate reader (Thermo Scientific). For quantification the background signal of ‘medium only’ wells was subtracted from all other wells, before the cell viability percentage of treated/untreated cells was calculated, by dividing the background corrected signal of treated wells over the background corrected signal of the untreated wells (×100).
(§2) Cells were seeded in a 96 well plate at 5.000-10.000 c/w in 100 μL/well and incubated overnight at 37° C. […] The media was removed from the cell culture plate and replaced by 180 μL culture media, followed by the addition of 20 μL treatment-mix/well. […]
(§3) After treatment the cells were incubated for 72 hr at 37° C. before the cell viability was determined by a MTS-assay, performed according to the manufacturer's instruction (CellTiter 96® AQueous One Solution Cell Proliferation Assay, Promega). […] Subsequently, the optical density at 492 nm was measured on a Thermo Scientific Multiskan FC plate reader (Thermo Scientific). For quantification the background signal of ‘medium only’ wells was subtracted from all other wells, before the ratio of […].

The next experiment has as its system SK-BR-3 cells. The settings on record: read-out: IC50 (calculated on concentration SO1861), + fixed 1.5 pM EGF-dianthin. As to the method: as §1, §2, §3
The test system of another experiment is CaSki cells. As to the method: (§4) Cells were seeded in a 96 well plate at 5.000-10.000 c/w in 100 μL/well and incubated overnight at 37° C. […] The media was removed from the cell culture plate and replaced by 180 μL culture media, followed by the addition of 20 μL treatment-mix/well. […] In the case that endosomal acidification inhibitors (chloroquine (Sigma Aldrich) or bafilomycin A1 (Enzo Life Sciences)) were used, the cell culture media in step 1 of treatment was replaced by 180 μL media containing 1 μM chloroquine or 0.2 μM bafilomycin A1. The plate was incubated for 1 hour at 37° C., before the 10× treatment-mix samples were added. The remaining incubation and treatment steps were performed according to standard procedures known in the field.
(§5) After treatment the cells were incubated for 72 hr at 37° C. before the cell viability was determined by a MTS-assay, performed according to the manufacturer's instruction (CellTiter 96® AQueous One Solution Cell Proliferation Assay, Promega). Briefly, the MTS solution was diluted 20× in DMEM without phenol red (PAN-Biotech GmbH) supplemented with 10% FBS (PAN-Biotech GmbH). The cells were washed once with 200 μL PBS per well, after which 100 μL diluted MTS solution was added per well. The plate was incubated for approximately 20-30 minutes at 37° C. Subsequently, the optical density at 492 nm was measured on a Thermo Scientific Multiskan FC plate reader (Thermo Scientific). For quantification the background signal of ‘medium only’ wells was subtracted from all other wells, before the ratio of […].

For the next experiment, the system named is HeLa cells. The following applies: + 1500 nM SO1861 (unconjugated). As to the method:
as §4, §5

Another experiment has as its system JIMT-1 cells. The following applies: + 1500 nM SO1861 (unconjugated). As to the method:
as §4, §5

The mark [1] stands for this setting: read-out: IC50 (calculated on concentration SO1861), SO1861 or mAb-SO1861 titrated + fixed 50 pM trastuzumab-saporin.

Read-outs that look alike come from different tables or passages of the source.

Take `CC(=O)O[C@H]1[C@H](O[C@@H]2OC[C@@H](O)[C@H](O)[C@H]2O)[C@@H](O)[C@H](O[C@@H]2[C@H](O)[C@@H](O[C@@H]3O[C@@H](C)[C@H](O[C@@H]4OC[C@@H](O)[C@H](O[C@@H]5OC[C@@H](O)[C@H](O)[C@H]5O)[C@H]4O)[C@@H](O)[C@H]3O)[C@H](OC(=O)[C@]34CCC(C)(C)C[C@H]3C3=CC[C@@H]5[C@@]6(C)CC[C@H](O[C@H]7O[C@H](C(=O)O)[C@@H](O)[C@H](O[C@@H]8OC[C@@H](O)[C@H](O)[C@H]8O)[C@H]7O[C@@H]7O[C@H](CO)[C@H](O)[C@H](O)[C@H]7O)[C@@](C)(C=O)[C@@H]6CC[C@@]5(C)[C@]3(C)C[C@H]4O)O[C@@H]2C)O[C@@H]1C` [SO1861]: the IC50 is 600 nM in the experiment with A431 cells (read-out: IC50 (calculated on concentration SO1861), + fixed 10 pM cetuximab-saporin); not below 1000 nM in the experiment on A431 cells (setting [1]); 800 nM in the experiment with SK-BR-3 cells; not below 1000 nM in the experiment with CaSki cells (setting [1]).
For Saporin, the IC50 worked out at 0.015 nM with CaSki cells (+ 1500 nM SO1861 (unconjugated), read-out: IC50); 0.03 nM in the experiment on HeLa cells; 0.03 nM with JIMT-1 cells.

(Values after patent US20230293708A1, “CONJUGATE OF SAPONIN AND SINGLE-DOMAIN ANTIBODY, PHARMACEUTICAL COMPOSITION COMPRISING SAID CONJUGATE, THERAPEUTIC USE THEREOF” (SAPREME TECHNOLOGIES B.V., priority 2020, published 2023).)
